Test results: patent US8518956B2, “1-(1-(2-ethoxyethyl)-3-ethyl-7-(4-methylpyridin-2-ylamino)-1H-pyrazolo[4,3-d]pyrimidin-5-yl) piperidine-4-carboxylic acid and salts thereof” (priority 2005, dated 2013)

What was measured:
[1] = test system: Chinese hamster ovary (CHO) cells; experiment: Method 7: Micronucleus Assay; format: cell-based; conditions: in vitro, with and without S9
Description: Method 7: Micronucleus Assay
An in vitro micronucleus assay can be used to determine the mutagenic potential of a test compound. This assay detects chromosome abnormalities resulting from exposure to a test compound by measuring the formation of small membrane-bound DNA fragments such as micronuclei in the cytoplasm of interphase cells.
The assay is conducted using Chinese hamster ovary (CHO) cells under different test conditions in the absence and presence of metabolic activation. Concordance in outcomes between this screening assay and in vitro cytogenetics is around 85%. Direct (−S9) testing is conducted using 24 hour or 3 hour continuous treatments, whereas testing with metabolic activation (+S9) involves a 3 hour treatment. Clastogenicity is indicated by an increase in numbers of micronucleated cells in the first interphase after exposure (in cytokinesis-blocked binucleated cells). The results are compared to the level of cytotoxicity (measured by the proportion of binucleated cells) a test compound produces. […] A test compound displaying a negative response has not fulfilled specific evaluation criteria for the assay which may include one or both of the following: 1) a reproducible concentration dependent increase in the specific assay endpoint when compared to a negative (vehicle) control and/or 2) one or more test concentrations achieving a minimum fold increase in the specific endpoint over controls. • Positive—A positive result identifies a genotoxic hazard defined by the assays specific endpoint (ex. positive in vitro micronucleus). A test compound displaying a positive response has fulfilled specific evaluation criteria for the assay which may include one or both of the following: 1) a reproducible concentration dependent increase in the specific assay endpoint when compared to a negative (vehicle) control and/or 2) one or more test concentrations achieving a minimum fold increase in the specific endpoint over controls. • Equivocal—An equivocal result is reserved for situations where the test compound has been evaluated in a valid assay test or tests (i.e. assay acceptability criteria satisfactory), but fails to display a negative or positive result as defined by established evaluation criteria. This may convey the presence of a weak positive response that requires additional repeat testing or eventual confirmatory testing case-by-case. • Inconclusive—An inconclusive result is reserved for situations where the test compound has been evaluated in an invalid assay test (i.e. assay acceptability criteria unsatisfactory for technical reasons, ex. negative or positive controls fail to respond appropriately). Repeat testing is recommended in order to establish a valid assay test result.

[2] = test system: spontaneously hypertensive rats (SHR); experiment: Method 12: SHR Rat Combination Therapy, blood pressure by telemetry; format: in vivo; conditions: 1 mg/kg once daily oral
urinary cGMP = experiment: Method 12: SHR Rat Combination Therapy, urinary cGMP mechanistic biomarker; format: in vivo; conditions: 0-24 hour urine collection on day 9
[3] = Method 11: Single Dose Pharmacokinetics and Oral Bioavailability in Male Sprague-Dawley Rat; format: in vivo; conditions: mean
Description: Repeat testing is recommended in order to establish a valid assay test result. P. Pharmacokinetic/Pharmacodynamic Study Method 11: Single Dose Pharmacokinetics and Oral Bioavailability in Male Sprague-Dawley Rat Following Intravenous and Oral Administration
An in vivo model can be used to evaluate the single dose pharmacokinetic properties and absolute oral bioavailability of a test compound. As described more specifically below, a test compound is administered to Sprague-Dawley (SD) rats either intravenously or orally in a crossover study design and the resulting pharmacokinetic properties and oral bioavailability are measured.
Male rats are administered a 2.0 mg/kg dose orally (n=2) by gavage as a suspension (0.5% methylcellulose/0.1% Tween 80 in distilled water). After a 72 hour wash-out periond, the same rats were administered 2.0 mg/kg dose bolus intravenously (n=2) as a solution (70% PEG 400/20% 0.05 M Citrate Buffer pH 3/10% Ethanol). Serial blood samples (for plasma) are collected from each rat over a 24 hour post dose for each route. […] Pharmacokinetic parameters of a test compound are determined from the plasma concentration-time data using non-compartmental methods. • LC/MS/MS: 1) Column: Hyperso; AQUASIL C-18 2.1×20 mm, 3.0 μm; 2) Mobile phase: Aqueous Water with 0.1% Formic Acid, Orgainic: Acetonitrile; Ionization: +ESI (API 4000). MRM: m/z 494.4→m/z 394.0 (Example 261 in WO2004096810), m/z 509.44→m/z 409.80 (Example 263 in WO2004096810), m/z 495.33→m/z 395.20 (Example 262 in WO2004096810). The detection limits are 0.12 ng/mL (Example 261 in WO2004096810), 1.3 ng/mL (Example 263 in WO2004096810) and 0.11 ng/mL (Example 262 in WO2004096810).
Watson (Version 6.4.0.04) is used to calculate mean test compound concentrations, corresponding standard deviations (SD), and percent coefficient of variation (% CV), and to estimate pharmacokinetic parameters (derived by noncompartmental methods) and associated statistics (mean, SD & CV %) if applicable. (Since n=2, no SD or CV calculated ?). Concentrations below the limit of quantitation (BLQ) are reported as zero (0) and are used in the evaluation of mean concentrations and the estimation of AUC. The peak plasma concentration (Cmax) and the time to reach peak concentration (tmax) are recorded directly from individual plasma concentration-time profiles. The terminal log-linear phase of the plasma concentration-time curve is identified by linear regression of data points. The terminal half-life (t1/2) is calculated as ln(2) divided by absolute value of the slope of the terminal log-linear phase. The area under the plasma concentration-time curve from time zero to time of the last quantifiable concentration (t) [AUC(0-t)] is determined using the linear trapezoidal method. The area under the plasma concentration-time curve from time zero to infinity [AUC(0-∞)] is determined as AUC(0-t) plus the extrapolated area. The extrapolated area is determined by dividing the last observed plasma concentration by the slope of the terminal log-linear phase. Systemic plasma clearance (CL) is calculated as dose/AUC(0-∞) while the volume of distribution at steady state (Vdss) is calculated as CL×MRT, where MRT (mean residence time) is defined as AUMC(0-∞)/AUC(0-∞). The absolute PO bioavailability (F) is calculated as a ratio of the dose-normalized AUC(0-∞) of individual animal after PO administration to the dose-normalized AUC(0-∞) of individual animal after IV administration given the crossover study design.

Compound: CCOCCn1nc(CC)c2nc(N3CCC(C(=O)O)CC3)nc(Nc3cc(C)ccn3)c21 [Carboxypiperidine Compound, 1-(1-(2-ethoxyethyl)-3-ethyl-7-(4-methylpyridin-2-ylamino)-1H-pyrazolo[4,3-d]pyrimidin-5-yl)piperidine-4-carboxylic acid]
- METHOD 7: MI[…] [1]: equivocal
- reduction of blood pressure from pre-dose baseline in comparison to vehicle treated group ([2]; day 1): 11±1 mmHg
- reduction of blood pressure below pre-dose baseline ([2]; day 7): 9±1 mmHg
- urinary cGMP in comparison to vehicle treated group (urinary cGMP): elevated
- AUC(0-inf) ([3]; plasma, iv, 2 mg/kg): 17500 ng·h/mL
- Vd ([3]; plasma, iv, 2 mg/kg, read-out: Vdss): 0.715 L/kg
- AUC(0-inf) ([3]; plasma, po, 2 mg/kg): 9070 ± 2300 ng·h/mL
- Cmax ([3]; plasma, po, 2 mg/kg): 1360 ± 216 ng/mL
- Tmax ([3]; plasma, po, 2 mg/kg): 30 ± 12 min
- F ([3]; po 2 mg/kg vs iv 2 mg/kg): 51.8 ± 13.1%
